Assay results: patent US11267806B2, “Indazole compound for use in inhibiting kinase activity, composition and application thereof” (Shenzhen TargetRx, Inc., priority 2017, dated 2022)
Like-named read-outs stand apart in the source and are kept apart here.

Key:
Ba/F3 EML-ALK cells = test: Cytotoxicity assay (cell viability, CellTiter-Glo), Ba/F3 EML-ALK; type: cell-based; details: Mus musculus, BaF3, 72 h, read-out: Ba/F3 EML-ALK IC50
[1] = Liver microsomal metabolism assay, rat; type: in vitro ADME; details: SD, pH 7.4, rat liver microsomes 0.5 mg/mL, compound 1 μM, 37° C.; for microsomal CLint at 1 μM: read-out: Rat liver microsome assay CLint; for half-life at 1 μM: read-out: Rat liver microsome assay t1/2
Description: (§1) (3) Liver Microsomal Metabolism Assay
(§2) […]; Coenzyme (NADPH/NADH): 1 mM, Sigma Life Science; Magnesium chloride: 5 mM, 100 mM phosphate buffer (pH 7.4).
(§3) Preparation of stock solutions: Powder of the compounds were accurately weighed and dissolved in DMSO to 5 mM.
(§4) Preparation of phosphate buffer (100 mM, pH7.4): A pre-prepared 0.5M potassium dihydrogen phosphate (150 mL) was mixed with 0.5M dibasic potassium phosphate (700 mL). The pH of the mixture was adjusted to 7.4 with 0.5M dibasic potassium phosphate solution. The mixture was diluted 5-fold with ultrapure water before use, and magnesium chloride was added to obtain a phosphate buffer (100 mM) containing 100 mM potassium phosphate, 3.3 mM magnesium chloride, pH 7.4.
(§5) A NADPH regeneration system solution (containing 6.5 mM NADP, 16.5 mM G-6-P, 3 U/mL G-6-P D, 3.3 mM magnesium chloride) was prepared and placed on wet ice prior to use.
(§6) Incubation of the samples: The stock solutions of the respective compounds were respectively diluted to 0.25 mM with an aqueous solution containing 70% acetonitrile, and used as a working solution, ready for use. 398 μL of the dilution of human liver microsomes or rat liver microsomes were added to 96-well incubation plates (N=2), respectively, and 2 μL of 0.25 mM working solution was added and mixed.
(§7) Metabolic stability assay: 300 μL of pre-chilled stop solution was added to each well of 96-well deep well plates and placed on ice as stop plates. The 96-well incubation plates and NADPH regeneration system were placed in a 37° C. water bath box, shaken at 100 rpm and pre-incubated for 5 min. 80 μL of incubation solution was taken out from each well of the incubation plates and added to the stop plates, mixed, and replenished with 20 μL of NADPH regeneration system solution as a 0-min sample. 80 μL of NADPH regeneration system solution was added to each well of the incubation plates to start the reaction and start counting. […] Separately, 100 μL of the reaction solutions was taken at 10, 30, and 90 min reaction, respectively, added to stop plates, and vortexed for 3 minutes to terminate the reaction. The stop plates were centrifuged at 5000×g at 4° C. for 10 min. 100 μL of the supernatant was added to a 96-well plate to which 100 μL of distilled water was previously added, mixed, and analyzed by LC-MS/MS.
(§8) Data analysis: The peak areas of the corresponding compounds and internal standard were detected by LC-MS/MS system, and the ratio of the peak area of the compounds to the internal standard was calculated.
(§9) The metabolic stability of the compounds in human and rat liver microsomes was evaluated by simultaneously testing and comparing the compounds disclosed herein and the non-deuterated compound. […]

[2] = test system: HCC-78 (SLC34A2-ROS1) cells; test: cells; details: Homo sapiens, HCC78, 72 h, read-out: HCC-78 IC50
Description: (§10) Assay methods: 1. Preparation of cell plates: Ba/F3, and Ba/F3 Bcr-Abl T315I cells were separately seeded in 96-well plates, and 8 ng/ml IL-3 was added to Ba/F3 cells. The cell plates were placed in a carbon dioxide incubator for culture overnight. 2. […] 3. Treatment of cells with compounds: The compounds were transferred to cell plates at a starting concentration of 10 μM. The cell plates were incubated in a carbon dioxide incubator for 3 days. 4. Detection: CellTiter-Glo reagent was added to the cell plates and incubated for 30 minutes at room temperature to stabilize the luminescence signal. Readings were performed using a PerkinElmer Envision multi-label analyzer.

KM12 (TPM3-TRKA) cells = test: cells; details: Homo sapiens, KM12, 72 h, read-out: KM12 IC50
Description: as §10

[3] = Liver microsomal metabolism assay, human; type: in vitro ADME; details: pH 7.4, human liver microsomes 0.5 mg/mL, compound 1 μM, 37° C.; for microsomal CLint at 1 μM: read-out: Human liver microsome assay CLint; for half-life at 1 μM: read-out: Human liver microsome assay t1/2
Description: as §1, §2, §3, §4, §5, §6, §7, §8, §9

[4] = test system: Ba/F3 EML-ALK^L1196M cells; test: Cytotoxicity assay (cell viability, CellTiter-Glo), Ba/F3 EML-ALK L1196M; type: cell-based; details: Mus musculus, BaF3, 72 h; cell viability, 3 days incubation; read-out: Ba/F3 EML-ALK^L1196M IC50
[5] = Pharmacokinetic assay in rats; type: in vivo, SD rat; details: male SD rats, i.g., 3 mg/kg; for AUC(0-t) / Cmax / MRT / Tmax: rat, plasma, po
Description: (4) Pharmacokinetic Assay in Rats Assay objective: after administration of test compounds to rats, the pharmacokinetic behavior of the compounds disclosed herein was investigated. Assay Animals: Species and strains: SD rat grade: SPF grade Gender and quantity: male, 6 Weight range: 180 to 220 g (the actual weight range was from 187 to 197 g) Assay Procedure: Before blood samples were collected, 20 μL of 2 M sodium fluoride solution (esterase inhibitor) was previously added to an EDTA-K2 anticoagulant tube, dried in an 80° C. oven, and placed in a 4° C. refrigerator. Rats (male, weighing 187 to 197 g) were randomly divided into 2 groups, and were fasted overnight in the afternoon before the experiment but were allowed to drink water freely. Food was given 4 hours after the administration. […] About 100-200 μL of blood was taken from the orbital vein of rats at 15 min, 30 min, 1, 2, 3, 5, 8 and 10 h after administration, placed in a 0.5 mL Eppendorf tube with EDTA-K2 anticoagulant and mixed immediately. After anticoagulation, the tube was gently inverted 5-6 times as quickly as possible. After the blood was taken, it was placed in an ice box, and then within 30 min, the blood sample was centrifuged for 10 min at 4000 rpm and 4° C. to separate the plasma. Immediately after collection of all plasma, it was stored at −20° C. The concentration of the drug in plasma at each time point was determined after sample collection at all time points. Based on the data of the average concentration of the drug in plasma versus time after administration obtained as described above, pharmacokinetics-related parameters of male SD rats after the i.g. administration of test compounds (3 mg/kg) were calculated using the Winnonin software according to non-compartment statistical moment theory.

[6] = cell viability, 3 days incubation

microsomal CLint at 1 μM [1] [µL/min/mg]	half-life at 1 μM [1] [min]	IC50 [2] [nM]	IC50 (KM12 (TPM3-TRKA) cells) [nM]	microsomal CLint at 1 μM [3] [µL/min/mg]	half-life at 1 μM [3] [min]	Cl_pred [5] [L/h/kg]	F [5] [%]	AUC(0-t) [5] [ng·h/mL]	Cmax [5] [ng/mL]	MRT [5] [h]	Tmax [5] [h]	SMILES	IC50 (Ba/F3 EML-ALK cells) [nM]	IC50 [4] [nM]	IC50 (Ba/F3 EML-ALK cells; [6]) [nM]
19.5	71.2	10 to 50	1 to 10	31.3	44.3							[2H]C1([2H])N(C)C([2H])([2H])C([2H])([2H])N(c2ccc(C(=O)Nc3n[nH]c4ccc(Cc5cc(F)cc(F)c5)cc34)c(NC3CCOCC3)c2)C1([2H])[2H] [Compound T-2, N-(5-(3,5-difluorobenzyl)-1H-indazol-3-yl)-4-(4-methylpiperazin-1-yl-2,2,3,3,5,5,6,6-d8)-2-((tetrahydro-2H-pyran-4-yl)amino)benzamide]	50 to 150		
27.3	50.7			39.2	35.4	24.66	13.03	1550	237	4.91	3.33	[2H]C([2H])([2H])N1C([2H])([2H])C([2H])([2H])N(c2ccc(C(=O)Nc3n[nH]c4ccc(Cc5cc(F)cc(F)c5)cc34)c(NC3CCOCC3)c2)C([2H])([2H])C1([2H])[2H] [Compound T-3, N-(5-(3,5-difluorobenzyl)-1H-indazol-3-yl)-4-(4-(methyl-d3)piperazin-1-yl-2,2,3,3,5,5,6,6-d8)-2-((tetrahydro-2H-pyran-4-yl)amino)benzamide]		> 200	50 to 150
21.9	63.3			36.2	38.3							[2H]c1cc(C(=O)Nc2n[nH]c3ccc(Cc4cc(F)cc(F)c4)cc23)c(NC2CCOCC2)c([2H])c1N1CCN(C)CC1 [Compound T-4, N-(5-(3,5-difluorobenzyl)-1H-indazol-3-yl)-4-(4-methylpiperazin-1-yl)-2-((tetrahydro-2H-pyran-4-yl)amino)benzamide-3,5-d]		> 200	50 to 150
31	44.7			48.2	28.8							[2H]c1cc(C(=O)Nc2n[nH]c3ccc(Cc4cc(F)cc(F)c4)cc23)c(NC2CCOCC2)c([2H])c1N1CCN(C([2H])([2H])[2H])CC1 [Compound T-5, N-(5-(3,5-difluorobenzyl)-1H-indazol-3-yl)-4-(4-(methyl-d3)piperazin-1-yl)-2-((tetrahydro-2H-pyran-4-yl)amino)benzamide-3,5-d2]		> 200	50 to 150
29.7	46.7			42.5	32.6							[2H]c1cc(C(=O)Nc2n[nH]c3ccc(Cc4cc(F)cc(F)c4)cc23)c(NC2CCOCC2)c([2H])c1N1C([2H])([2H])C([2H])([2H])N(C([2H])([2H])[2H])C([2H])([2H])C1([2H])[2H] [Compound T-6, N-(5-(3,5-difluorobenzyl)-1H-indazol-3-yl)-4-(4-(methyl-d3)piperazin-1-yl-2,2,3,3,5,5,6,6-d8)-2-((tetrahydro-2H-pyran-4-yl)amino)benzamide-3,5-d2]		> 200	50 to 150
33.7	41.1			51.1	27.1	5.85	13.67	1770	278	5.28	4	[2H]C([2H])(c1cc(F)cc(F)c1)c1ccc2[nH]nc(NC(=O)c3ccc(N4CCN(C)CC4)cc3NC3CCOCC3)c2c1 [Compound T-7, N-(5-((3,5-difluorophenyl)methyl-d2)-1H-indazol-3-yl)-4-(4-methylpiperazin-1-yl)-2-((tetrahydro-2H-pyran-4-yl)amino)benzamide]		> 200	50 to 150
33.6	41.3			44.9	30.9	6.76	11.78	1530	254	4.42	3.33	[2H]C1([2H])CC(Nc2cc(N3CCN(C)CC3)ccc2C(=O)Nc2n[nH]c3ccc(Cc4cc(F)cc(F)c4)cc23)CC([2H])([2H])O1 [Compound T-8, N-(5-(3,5-difluorobenzyl)-1H-indazol-3-yl)-4-(4-methylpiperazin-1-yl)-2-((tetrahydro-2H-pyran-4-yl-2,2,6,6-d4)amino)benzamide]		> 200	50 to 150
33.7	41.1			47.5	29.2							[2H]c1c(F)cc(Cc2ccc3[nH]nc(NC(=O)c4ccc(N5CCN(C)CC5)cc4NC4CCOCC4)c3c2)cc1F [Compound T-9]		> 200	50 to 150
31	44.6			45	30.8							[2H]C([2H])(c1cc(F)cc(F)c1)c1ccc2[nH]nc(NC(=O)c3ccc(N4CCN(C([2H])([2H])[2H])CC4)cc3NC3CCOCC3)c2c1 [Compound T-11, N-(5-((3,5-difluorophenyl)methyl-d2)-1H-indazol-3-yl)-4-(4-(methyl-d3)piperazin-1-yl)-2-((tetrahydro-2H-pyran-4-yl)amino)benzamide]		> 200	10 to 50
